“Also recorded” adds a separate entry of the source.
Experiments:
DNA = conditions: pro-oxidant potential; cited from earlier work
[1] = system: human erythrocytes and human cataractous lenses; conditions: cited from earlier work
aortic rings = experiment: Rat aortic thoracic rings: acetylcholine relaxation after phenylephrine contraction, 4-week oral treatment; format: in vivo, alloxan-diabetic male Wistar rats; conditions: chronic oral administration, acetylcholine 10^-7 M, FIG. 3
Description: Male Wistar rats, weighing between 230-250 g, fed regular chow, with free access to water were separated in four groups (n=10/each). The first two groups, termed normoglycemic, were treated with saline (0.1 mL/100 g/12 h) by the oral route (intragastric gavage) or untreated for four weeks. The second two groups, hyperglycemic, were treated with saline (0.1 mL/100 g/12 h) or treated with D-chiro-inositol (20 mg/kg/12 h) under the same protocol. […] Diabetes was induced by a single intravenous injection of 45 mg/kg alloxan as described by Sannomiya et al., 1997 ( ). Diabetes was diagnosed 96 h after injection by blood glucose assay >200 mg/dL. All protocols were approved by the local committee and follow the Guide for the Care and Use of Laboratory Animals published by the US National Institutes of Health (NIH Publication No. 85-23, revised 1996). After completion of blood pressure measurements and vascular mesenteric bed collection, animals were sacrificed by exsanguination while under anesthesia. The thoracic aorta was excised and rapidly cleansed of connective tissue in Petri dishes containing warmed and gassed (95% O2 in 5% CO2) Krebs-Henseleit solution (KHS). The aorta segment was cut in small rings (≈5 mm) and mounted horizontally in 5 mL chambers for isometric recording of tension. The resting tension was adjusted to 1 g and the tissue allowed to equilibrate for 1 hour with a 15 min washout period. Tissues were kept in KHS at 37° C., gassed with the O2, CO2 mixture and isometric recordings made with a force displacement transducer connected to a four-channel polygraph (Narco Biosystems, Houston, Tex., USA). After the equilibration period, tissues were contracted with a submaximal concentration of phenylephrine (≈60% maximal response) until two similar responses were obtained in order to ensure reproducibility of the contraction curves. […] The acetylcholine dose response curve was repeated after a 60 min washout interval. All experiments were performed in the presence of indomethecin (10 μM) and guanethidine (10 μM) to prevent the production of vasoactive prostanoids. At least 6 separate experiments will be performed each in duplicate.

vascular mesenteric bed = experiment: Rat arteriolar mesenteric bed: acetylcholine-evoked decrease in perfusion pressure after 4-week oral treatment; format: in vivo, alloxan-diabetic male Wistar rats; conditions: chronic (4-week) oral administration, highest acetyl choline concentrations, FIG. 4
Description: Male Wistar rats, weighing between 230-250 g, fed regular chow, with free access to water were separated in four groups (n=10/each). The first two groups, termed normoglycemic, were treated with saline (0.1 mL/100 g/12 h) by the oral route (intragastric gavage) or untreated for four weeks. The second two groups, hyperglycemic, were treated with saline (0.1 mL/100 g/12 h) or treated with D-chiro-inositol (20 mg/kg/12 h) under the same protocol. […] Diabetes was induced by a single intravenous injection of 45 mg/kg alloxan as described by Sannomiya et al., 1997 ( ). Diabetes was diagnosed 96 h after injection by blood glucose assay >200 mg/dL. All protocols were approved by the local committee and follow the Guide for the Care and Use of Laboratory Animals published by the US National Institutes of Health (NIH Publication No. 85-23, revised 1996).
The mesentery was carefully removed by cutting close to the intestinal border with a small scissors. […] The vascular bed was rapidly perfused with warm KHS (37° C.; pH 7.4; gassed with 95% O2 in 5% CO2) in an open system with a constant flow of 4 ml/min maintained with a peristaltic pump. Alterations in perfusion pressure were continuously recorded in a four-channel polygraph (Narco Biosystems, Houston, Tex., USA) by means of a pressure transducer (P23 Gould Stratham, Oxnard, Calif., USA). After a 30 minute equilibration period, phenylephrine (1 to 5 μM) was infused by means of an infusion pump at a constant rate (0.1 ml/min) in order to achieve a stable perfusion pressure (100-120 mm Hg). Dose response curves were performed with vasodilators, i.e. acetylcholine (Ach; 10^-9 to 10^-3 M). Drugs were injected as 50 μL boluses, previously shown not to effect perfusion pressure in a side arm just above the cannula in the mesenteric artery. At least 6 separate experiments were performed each in duplicate.

[2] = system: ROS generated by xanthine/xanthine oxidase; experiment: Superoxide assay in vitro: xanthine/xanthine oxidase, NBT reduction; format: biochemical; conditions: low micromolar concentrations, FIG. 10
Description: Superoxide radicals were generated by the reaction of xanthine (1 mM) and xanthine oxidase ([…]) in air-saturated potassium phosphate buffer (pH 7.8 at 25° C.). Superoxide anions were detected by nitroblue tetrazolium (NBT—50 μM) which undergoes reduction by O2-. to its formazan. The rate of reduction was monitored spectrophotometrically at 560 nm with an Ultrospec 1000 (Pharmacia Biotech, Cambridge, England). SOD-1, by scavanging O2-. Diminishes the rate of reduction of NBT. The volume was fixed at 2 mL. Each experiment was run in duplicate.

penile corpus cavernosus = experiment: Rabbit penile corpus cavernosus: relaxation to electrical field stimulation after 60 min incubation; set-up: species or system low dose alloxan-diabetic rabbit; conditions: 1 μM, EFS 2-16 Hz, FIG. 8
Description: Male California rabbits, weighing 2-2.5 kg, were provided by the vivarium of the Biomedicine Institute-UFC. Diabetes was induced by intraperitoneal injection of alloxan (150 mg/kg) and only animals with plasma glucose concentration above 200 mg/dl were included in the study. Age-matched euglycemic rabbits were used as controls.
Kidneys and aortic rings were harvested from diabetic rabbits after 3 weeks of alloxan injection. The animals were sacrificed under sodium pentobarbital anesthesia (Hypnol®, 150-200 mg/kg). […]. Rabbit kidneys were obtained from male New Zealand rabbits (1-1.5 kg) after cannulation of the renal artery in situ. [Thereafter the organ is rapidly perfused with warm KHS at 37° C., pH 7.4 and gassed with 95% O2 in 5% CO2 in an open system with a constant flow adjusted to yield 1 mL/g/min and maintained by a peristaltic pump. The alterations in perfusion pressure are continuously recorded in a four-channel polygraph (Narco Biosystems, Houston, Tex., USA) by means of a pressure transducer (P23 Gould Stratham, Oxnard, Calif., USA). After a 30 minute equilibration period, phenylephrine (1 to 5 μM) is infused by means of an infusion pump at a constant rate (0.1 ml/min) in order to achieve a stable perfusion pressure (100-120 mm Hg). Concentration-response curves are performed to the vasodilators, i.e. acetylcholine (Ach; 10^-9 to 10^-3 M). Drugs are injected as a 50 μL bolus, previously shown not to effect perfusion pressure in an arm side just above the cannula in the renal artery.] Following penectomy, the corpus cavernosum was dissected in Krebs solution and cleared of the tunica albuginea and surrounding tissues. Strips (2 cm) were mounted vertically in isometric baths (5 mL) in Krebs-Henseleit solution (37° C., pH 7.4 gassed with 95% O2 in 5% CO2) enriched with indomethecin (10 μM) and guanethedine (10 μM) in order to avoid prostanoid or neuronal norandrenergic interaction. After a 60 minute period for stabilization, tissues were precontracted with 10 μM phenylephrine in order to increase the basal tonus. Thereafter, frequency response curves to transmural electrical field stimulations (EFS—square wave pulses: 10 s train; 20 V, 0.5 ms, 2-16 Hz) were performed until two stable reproducible curves were attained. Then, frequency response curves were repeated after 60 min incubation with saline or 1 μM pinitol, DCI or db-DCI in the alloxan-diabetic rabbits. They are perfused with KHS containing 1 μM D-chiro-inositol, pinitol, dibutyryl D-chiro-inositol, myo-inositol or saline for 60 min. Dose response curves for acetylcholine are then performed following prior phenylephrine vasoconstriction as described. At least 6 separate experiments were performed each in duplicate.

| Compound | oxidative DNA damage (DNA) | effect on macrovascular endothelial dysfunction at intermediate acetylcholine concentration (aortic rings) | effect on microvascular endothelial dysfunction (vascular mesenteric bed) | reduction of ROS generated by xanthine/xanthine oxidase [2] | other results |
| --- | --- | --- | --- | --- | --- |
| CC(=O)N[C@@H](CS)C(=O)O [N-acetylcysteine] | cause oxidative DNA damage |  |  |  |  |
| O=P(O)(O)O[C@H]1[C@H](OP(=O)(O)O)[C@@H](OP(=O)(O)O)[C@H](OP(=O)(O)O)[C@@H](OP(=O)(O)O)[C@H]1OP(=O)(O)O [Phytic acid, Myoinositol hexaphosphate] | does not cause oxidative DNA damage even at high concentrations |  |  |  |  |
| O[C@H]1[C@H](O)[C@@H](O)[C@H](O)[C@@H](O)[C@H]1O [myoinositol, reference compound] |  | followed by DCI, pinitol and myoinositol in descending order of effect | perhaps slightly better than pinitol and DCI | reduced ROS in a low micromolar concentration dependant manner | peroxidation effect of hydrogen peroxide [1]: decrease the peroxidation effect of hydrogen peroxide; effect on macrovascular endothelial dysfunction at intermediate acetylcholine concentration (aortic rings; listed as myo-inositol): active at intermediate acetyl choline concentrations; effect on microvascular endothelial dysfunction (vascular mesenteric bed; listed as myo-inositol): perhaps slightly better than pinitol and D-chiro-inositol; reduction of ROS generated by xanthine/xanthine oxidase ([2]; listed as myo-inositol): equally effective |
| CO[C@H]1[C@H](O)[C@@H](O)[C@@H](O)[C@H](O)[C@@H]1O [pinitol] |  | followed by DCI, pinitol and myoinositol in descending order of effect; also recorded: active at intermediate acetyl choline concentrations | approximately equally effective | equally effective; also recorded: reduced ROS in a low micromolar concentration dependant manner | restoration of vasorelaxant effect of electrical stimulation of the pudendal nerve (penile corpus cavernosus): restoration of vasorelaxant effect |
| O=c1c(O)c(-c2ccc(O)c(O)c2)oc2cc(O)cc(O)c12 [quercetin] | cause oxidative DNA damage |  |  |  |  |
| Vitamin A | cause oxidative DNA damage |  |  |  |  |
